This test deals with Recombinant human PDK1 enzyme (aa 52-556) (Homo sapiens (Human), UniProt O15530). Kind of test: PDK1 kinase assay. The class given is biochemical. The conditions noted are these: in vitro kinase assay, His6-PDK1 (aa 52-556), PDKtide, P33-ATP. In short, it runs like this:
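His6-tagged human PDK1 (aa 52-556) from baculovirus-infected insect cells, 3.33 ng/well, with 25 μM PDKtide in Tris pH 7.5/10 mM Mg-acetate. Compound (from 10 μM, 1:5 steps) was preincubated 30 min at RT, then 25 μM ATP solution with γ-33P-ATP was added for 90 min at RT. Phosphoric-acid-precipitated 33P was counted on filters.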
Recombinant human PDK1 enzyme (aa 52-556), sequence (O15530 52-556): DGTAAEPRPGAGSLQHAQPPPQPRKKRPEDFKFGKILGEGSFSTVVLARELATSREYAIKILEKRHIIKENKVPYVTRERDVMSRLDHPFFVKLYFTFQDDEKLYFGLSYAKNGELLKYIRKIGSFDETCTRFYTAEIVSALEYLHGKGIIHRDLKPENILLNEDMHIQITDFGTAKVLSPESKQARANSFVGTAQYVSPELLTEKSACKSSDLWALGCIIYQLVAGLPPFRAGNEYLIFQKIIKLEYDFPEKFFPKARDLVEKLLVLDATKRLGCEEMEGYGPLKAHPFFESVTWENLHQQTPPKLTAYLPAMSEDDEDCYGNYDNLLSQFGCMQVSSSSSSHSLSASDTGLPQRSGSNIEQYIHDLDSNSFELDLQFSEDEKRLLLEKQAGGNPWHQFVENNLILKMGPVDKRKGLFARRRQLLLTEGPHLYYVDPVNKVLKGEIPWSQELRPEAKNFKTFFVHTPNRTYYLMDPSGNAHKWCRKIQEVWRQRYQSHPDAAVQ
The term IC50 denotes the concentration that gives 50% inhibition. As to `N[C@H]1CC[C@H](Nc2cnc3ccc(C#CCNC(=O)c4cncn(Cc5ccc(F)c(F)c5)c4=O)cc3n2)CC1` [I-34], the half-inhibitory concentration (IC50) was determined as 3 nM.
As for `CN1CCC(Nc2cnc3ccc(C#CCNC(=O)c4cncn(Cc5ccc(F)c(F)c5)c4=O)cc3n2)C1` (stereo not drawn) [I-16], the figure is 33 nM; as for `O=C(NCC#Cc1ccc2ncc(NC3CCN(C4COC4)CC3)nc2c1)c1cccn(Cc2ccc(F)c(F)c2)c1=O` [I-57], 9 nM; as for `O=C(NCC#Cc1ccc2ncc(C(=O)N3CCOCC3)cc2c1)c1cncn(Cc2ccc(F)c(F)c2)c1=O` [II-82], 531 nM.
The value for `CNc1ncnc2ccc(C#CCNC(=O)c3cc(Cl)nn(Cc4ccc(F)c(F)c4)c3=O)cc12` [II-58] was 10 nM.
As for `CN(C)CCCN(C)C(=O)c1cnc2ccc(C#CCNC(=O)c3cncn(Cc4ccc(F)c(F)c4)c3=O)cc2c1` [II-79], the figure is 201 nM.
In the case of `CCN1CCC(Nc2cnc3ccc(C#CCNC(=O)c4cccn([C@@H](CO)c5ccc(F)c(F)c5)c4=O)cc3n2)CC1` [I-50], the IC50 worked out at 1 nM.
The value for `O=C(NCC#Cc1ccc2ncc(NC3CCN(CCO)CC3)nc2c1)c1cncn(Cc2ccc(F)c(F)c2)c1=O` [I-9] was 3 nM; that for `O=C(NCC#Cc1ccc2ncnc(-c3ccccc3)c2c1)c1cncn(Cc2ccc(F)c(F)c2)c1=O` [II-65] was 58 nM; that for `O=C(NCC#Cc1ccc2ncnc(C3=CCNCC3)c2c1)c1cncn(Cc2ccc(F)c(F)c2)c1=O` [II-67] was 96 nM.
As for `CCN1CC[C@H](Nc2cnc3ccc(C#CCNC(=O)c4cncn(Cc5ccc(F)c(F)c5)c4=O)cc3n2)[C@H](F)C1` [I-47], the figure is 4 nM; as for `O=C(NCC#Cc1ccc2ncc(O)cc2c1)c1cncn(Cc2ccc(F)c(F)c2)c1=O` [I-86], 86 nM.
The value for `CCN(CC)CCCOc1ccnc2ccc(C#CCNC(=O)c3cncn(Cc4ccc(F)c(F)c4)c3=O)cc12` [I-125.13] was 6 nM; that for `O=C(NCC#Cc1ccc2ncc(NC3CCN(C4COC4)CC3)nc2c1)c1cncn(Cc2ccc(F)c(F)c2)c1=O` [I-56] was 3 nM.
On to `CN(C)CCN(C)c1cnc2ccc(C#CCNC(=O)c3cncn(Cc4ccc(F)c(F)c4)c3=O)cc2n1` [I-11], for which the IC50 was found to be 88 nM.
Consider `CC(C)Nc1c(C#N)cnc2ccc(C#CCNC(=O)c3cccn(Cc4ccc(F)c(F)c4)c3=O)cc12` [II-104], for which the IC50 was determined as 147 nM.
The value for `CN1CC[C@@H](COc2ccnc3ccc(C#CCNC(=O)c4cccn(Cc5cc(F)c(F)c(F)c5)c4=O)cc23)C1` [I-125.12] was 6 nM; that for `CCNc1c([N+](=O)[O-])cnc2ccc(C#CCNC(=O)c3cncn(Cc4ccc(F)c(F)c4)c3=O)cc12` [I-126] was 86 nM.
Turning to `CN(C)CCNc1ncnc2ccc(C#CCNC(=O)c3cncn(Cc4ccc(F)c(F)c4)c3=O)cc12` [II-10], the half-inhibitory concentration (IC50) was determined as 229 nM.
The value for `O=C(NCC#Cc1ccc2ncc(N[C@H]3CC[C@H](N4CCOCC4)CC3)nc2c1)c1cncn(Cc2ccc(F)c(F)c2)c1=O` [I-40] was 2 nM; that for `CN(C)C(=O)c1cnc2ccc(C#CCNC(=O)c3cncn(Cc4ccc(F)c(F)c4)c3=O)cc2c1` [II-86] was 355 nM.
Consider `CNc1ncnc2ccc(C#CCNC(=O)c3cccn(Cc4ccsc4)c3=O)cc12` [II-26], for which the IC50 is 199 nM.
As for `CN(C)CCCNc1cnc2ccc(C#CCNC(=O)c3cncn(Cc4ccc(F)c(F)c4)c3=O)cc2n1` [I-10], the figure is 11 nM; as for `CCOc1ncnc2ccc(C#CCNC(=O)c3cncn(Cc4ccc(F)c(F)c4)c3=O)cc12` [I-7], 94 nM.
The value for `O=C(NCC#Cc1ccc2ncc(OC3CCNCC3)cc2c1)c1cncn(Cc2ccc(F)c(F)c2)c1=O` [I-87] was 23 nM.
As for `CN(C)CCCOc1ccnc2ccc(C#CCNC(=O)c3cncn(Cc4ccc(F)c(F)c4)c3=O)cc12` [I-88], the figure is 15 nM.
As for `CCN(CC)c1ncnc2ccc(C#CCNC(=O)c3cccn(C(C)c4ccc(F)c(F)c4)c3=O)cc12` (stereo not drawn) [II-54], the IC50 came to 8 nM.
As for `O=C(NCC#Cc1ccc2ncnc(NC3CCN(CCO)CC3)c2c1)c1cncn(Cc2ccc(F)c(F)c2)c1=O` [II-24], the figure is 77 nM.
As for `CN(C)c1ncnc2ccc(C#CCNC(=O)c3cccn(Cc4cc[nH]n4)c3=O)cc12` [II-42], the IC50 stood at 697 nM.
`CC(N)CCOc1ccnc2ccc(C#CCNC(=O)c3cccn(Cc4ccc(F)c(F)c4)c3=O)cc12` (stereo not drawn) [I-125.7]: the IC50 was found to be 32 nM.

These data come from patent US8575203B2, “Chemical compounds” (Boehringer Ingelheim International GmbH, priority 2010, dated 2013).
